Laboratory results reported in patent US20240124483A1, “Methods for the Treatment of Fibrotic Disease” (SHY Therapeutics, LLC, priority 2021, published 2024).
Like-named read-outs stand apart in the source and are kept apart here.

Assays:
[1] = Observation for mortality and signs of pain or distress, D2-mdx mice; type: in vivo; conditions: male D2-mdx mice, 100 mg/kg IP daily for 3 days
Experimental: (§1) Experimental Design: Compound 9 was suspended in 0.5% Hydroxypropyl Methylcellulose (HPMC)/0.1% Tween® 80 to a final concentration of 10 mg/mL. The dosing solutions were prepared prior to the start of the test and were stored in the dark and maintained in frozen aliquots. Doses were thawed prior to administration. Male D2-mdx (JAX Stock No: 013141) mice were sourced from The Jackson Laboratory and housed in solid bottom cages with standard chow and water ad libitum. Dosing was initiated when animals were ˜3 weeks old. Animals were dosed daily by intraperitoneal (IP) injection at 100 mg/kg or vehicle for 3 days. […] Mice were sacrificed by CO2 euthanasia approximately 6 hours after their day 3 dosing. Heart, diaphragm, quadriceps, tibialis anterior (TA) samples were collected at termination on day 3 and snap frozen. These samples were shipped on dry ice for analysis, and were stored at −80° C.

[2] = test system: serum albumin in muscle tissues; assay: Albumin analysis of muscle tissue in the D2-mdx mouse model (western blot, densitometry); type: in vivo
Description: The experiment described herein was designed to monitor the effects of Compound 9 on two biomarkers related to fibrosis in D2-mdx mice. The first biomarker is Smad2 phosphorylation, and the second is the levels of serum albumin in the different muscle tissues. Fibrosis causes disruption of the fine transparent tubular sheath which envelops the fibers of skeletal muscles, this can result in various molecules from the blood and interstitial fluid leaking into myofibres. A classic example is serum albumin, which can be identified in tissue sections and considered to be hallmark of myofibre permeability.
as §1
Tissue protein extraction: Frozen tissues were placed on ice in prechilled tubes with 30 μL/mg with of ice-cold RIPA buffer+Halt™ Protease & Phosphatase Inhibitor Cocktail. Tissue was homogenized with a manual tissue homogenizer then centrifuged at 14,000 RPM at 4° C. for 15 min. Supernatant was removed and protein concentration determined by BCA assay.
Western blot protocol: Equal amounts of protein (15-50 μg) were separated by SDS-PAGE and transferred to nitrocellulose membranes (Invitrogen by Thermo Fisher Scientific). The membrane was stained with Ponceau S Stain (Boston BioProducts) to verify uniform protein loading. Membranes were blocked with 10% milk and albumin levels were assessed by incubating overnight at 4° C. with albumin antibody (Cell Signaling Technology #4929). Then the membranes were incubated with HRP-conjugated secondary antibody (Jackson Immunoresearch, West Grove, PA). Bands were incubated in Amersham ECL Prime Western Blotting Detection Reagent (GE Healthcare) and visualized using the ChemiDoc MP imaging system (Bio-Rad).
Western blot images for samples collected from heart (FIG. 2), diaphragm (FIG. 3), quadriceps (FIG. 4), and tibialis anterior (TA, FIG. 5) tissues following termination on day 3 were analyzed, providing the results summarized herein below (derived by densitometry).

[3] = Observation for mortality and signs of pain or distress, DBA/2J mice; type: in vivo; conditions: male DBA/2J mice, single dose, up to 100 mg/kg
Experimental: (§2) Experimental Design: Compound 9 was suspended in 0.5% Hydroxypropyl Methylcellulose (HPMC)/0.1% Tween® 80 to a final concentration of 10 mg/mL. The dosing solutions were prepared prior to the start of the test. Male DBA/2J mice (Jackson Stock No: 000671) were housed in solid bottom cages with standard chow and water ad libitum. Dosing was initiated when animals were 7-8 weeks old. Mice were dosed at a volume of 10 mL/kg by intraperitoneal (IP) injection at 100 mg/kg or vehicle. […] Blood was collected at 15 min, 30 min, 1 h, 2 h, 4 h, 7 h, 16 h, 24 h by cardiac puncture, mixed gently 8 times and put on ice until centrifuged within 30 minutes of collection. The plasma was transferred to a 96-well plate for analysis of test compound levels.

[4] = Assessment of Plasma Exposure in DBA/2J mice; type: in vivo, mouse; conditions: for half-life / AUC(0-t) / Cmax / AUC(0-inf) / Tmax: male, DBA/2J, mouse plasma; for half-life / AUC(0-t) / Cmax / AUC(0-inf): mouse, plasma, po; for AUC(0-inf): read-out: AUCINFobs
[5] = Assessment of Plasma Exposure in DBA/2J mice; type: in vivo, mouse
Experimental: as §2
Preparation of Standard Solutions for Calibration of UPLC: Assay: 2 mg/mL in DMSO Stock solutions of reference standard of Compound 9 was freshly prepared. 15 uL of the 2 mg/mL DMSO stock solution of Compound 9 was spiked into a vial and diluted to a final volume of 1 mL (30 ug/mL). 100 uL of the 30 ug/mL solution was mixed with 900 uL methanol (final conc. 3 ug/mL). A calibration curve was obtained from solutions having concentrations of 0.001, 0.003, 0.01, 0.03, 0.1, 0.5 and 1 ug/mL, which were prepared further dilution of the 3 ug/mL solution with methanol. An internal standard of D3-desacetylDFZ (500 ng/mL in methanol) was used. • UPLC Conditions: • Column: Waters UPLC Acquity BEH C18 Column 2.1*50, 1.7 uM • Mobile phase: A: 0.1% formic acid in water; B: 0.1% formic acid in 100% acetonitrile • Gradient:
• Temperature: 50° C. • Run time: 2 min • Injection volume=2 uL • Instrument: Waters TQ-s • Desolvation Temperature: 500° C. • Desolvation gas flow: 1000 L/hr • Capillary Cone voltage: 0.5 • Reference batch: 21-hydroxy emflaza, Compound 9
Preparation of Samples for UPLC: Protein Precipitation Method Using Millipore Hydrophilic Plate (MSRLN04) to Filter the Precipitated Protein • 1) Plasma calibration curve for positively charged compound: all in the filter plate added • a) IS-410000 in acetonitrile (0.1 ug/mL) 200 uL • b) Calibration curve in methanol: 20 uL • c) Methanol: 20 uL • d) Control mouse plasma: 20 uL • 2) Test plasma • a) IS-410000 in acetonitrile (0.1 ug/mL) 200 uL • b) Calibration curve in methanol: 20 uL • c) Test plasma: 20 uL
Placed sample on automatic shaker for at least 5 min
Centrifuged at 2000 rpm (Eppendorf 5804) for 2 min. 2-2.5 uL supernatant were injected onto LCMS system

[6] = D2-mdx mice, 100 mg/kg IP, 3 days
[7] = Ratio of Vehicle and Treated, 100 mg/kg IP, 3 days
[8] = Treated, 100 mg/kg IP daily for 3 days, D2-mdx mice, densitometry
[9] = 25 mg/kg, Group 2: 25 mg/kg PO, Vehicle 1
[10] = 100 mg/kg, Group 3: 100 mg/kg PO, Vehicle 1
[11] = 100 mg/kg, Group 4: 100 mg/kg PO, Vehicle 2
[12] = male, DBA/2J, mouse, plasma, ip, 100 mg/kg, Group 5: 100 mg/kg IP, Vehicle 1, mouse plasma

For `COCCNc1nc(-c2nccn2C)nc2sc(-c3cccc(OC)c3Cl)c(-c3ccccc3)c12` [Compound 9, 6-(2-Chloro-3-methoxyphenyl)-N-(2-methoxyethyl)-2-(1-methyl-1H-imidazol-2-yl)-5-phenylthieno[2,3-d]pyrimidin-4-amine], the “findings of overt toxicity” value [1] was “No findings of overt toxicity were observed”, the “serum albumin levels in the heart” value [2, 6] was “No changes were detected” and the “serum albumin levels in the tibialis anterior and quadricep muscles” value [2, 6] was “clear decrease”. The “Albumin, Quadriceps, Average, Ratio” value [2, 7] was 1.25, the “Albumin, Quadriceps, Median, Ratio” value [2, 7] was 1.21 and the “Albumin, Tibialis anterior, Average, Ratio” value [2, 7] was 1.18. The “Albumin, Tibialis anterior, Median, Ratio” value [2, 7] was 1.26, the “Albumin, Quadriceps, Average” value [2, 8] was 32650 ± 4998 and the “Albumin, Quadriceps, Median” value [2, 8] was 34329. The “Albumin, Tibialis anterior, Average” value [2, 8] was 34522 ± 4321, the “Albumin, Tibialis anterior, Median” value [2, 8] was 33494 and the “findings of overt toxicity” value [3] was “No findings of overt toxicity were observed”. The “Exposures (AUC), dose dependence” value ([4]; Groups 2 and 3: 25 and 100 mg/kg PO, Vehicle 1) was “dose proportional”, the half-life ([4]; 25 mg/kg, Group 2: 25 mg/kg PO, Vehicle 1 (0.5% HPMC with 0.1% Tween 80)) was 174 min and the AUC(0-t) [4, 9] was 3880 ng·h/mL. For the same molecule, the Cmax [4, 9] was 703 ng/mL, the AUC(0-inf) [4, 9] was 3900 ng·h/mL and the AUC(0-t) [4, 10] was 16700 ng·h/mL. The Cmax [4, 10] was 1960 ng/mL, the half-life [4, 10] was 127 min and the AUC(0-inf) [4, 10] was 16700 ng·h/mL. It also gave a half-life ([4]; 100 mg/kg, Group 4: 100 mg/kg PO, Vehicle 2 (Solubilized Lipid)) of 138 min, an AUC(0-t) [4, 11] of 17100 ng·h/mL and a Cmax [4, 11] of 2090 ng/mL. The AUC(0-inf) [4, 11] was 17200 ng·h/mL, the Tmax ([4]; Group 2: 25 mg/kg PO, Vehicle 1) was 4 h and the Tmax ([4]; Group 3: 100 mg/kg PO, Vehicle 1) was 4 h. For the same molecule, the “Exposures (AUC), Vehicle 1 compared to Vehicle 2” value ([4]; oral dosing (PO), 100 mg/kg) was “similar”, the “Exposures, intraperitoneal (IP) injection compared to oral dosing” value ([5]; Group 5 compared to Group 3, 100 mg/kg) was “higher” and the AUC(0-t) [5, 12] was 43000 ng·h/mL. For the same molecule, the Cmax [5, 12] was 26000 ng/mL, the half-life [5, 12] was 178 min and the AUC(0-inf) ([5]; male, DBA/2J, mouse, plasma, ip, 100 mg/kg, Group 5: 100 mg/kg IP, Vehicle 1, mouse plasma, read-out: AUCINFobs) was 43200 ng·h/mL. For the same molecule, the Tmax ([5]; male, DBA/2J, Group 5: 100 mg/kg IP, Vehicle 1, mouse plasma) was 15 min.
